Experimental data taken from ChEMBL document CHEMBL1124911, “Inhibition of human leukocyte elastase. 2. Inhibition by substituted cephalosporin esters and amides” (J Med Chem, 1990).

Columns and labels:
Neutrophil elastase = target: T1, Neutrophil elastase (Homo sapiens, UniProt P08246); test: In vitro inhibition of Human Leukocyte Elastase (HLE)
T1 sequence (P08246 whole entry): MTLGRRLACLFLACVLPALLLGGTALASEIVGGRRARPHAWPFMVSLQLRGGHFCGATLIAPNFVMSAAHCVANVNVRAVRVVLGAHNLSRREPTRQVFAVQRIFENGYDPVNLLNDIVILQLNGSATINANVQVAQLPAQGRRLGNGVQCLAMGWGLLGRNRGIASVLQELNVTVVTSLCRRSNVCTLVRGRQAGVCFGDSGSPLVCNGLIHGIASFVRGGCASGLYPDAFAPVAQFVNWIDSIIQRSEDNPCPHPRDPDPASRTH

[1] = target: T2, Neutrophil elastase (Homo sapiens) (UniProt P08246)
T2 sequence (whole entry): T1 sequence (P08246 whole entry)
Description: Second-order rate constant for time-dependent inactivation of Human Leukocyte Elastase was determined; H means an inverse progress curve was observed

[2] = target: T2, Neutrophil elastase (Homo sapiens); remark: listed apart in the source
Description: Second-order rate constant for time-dependent inactivation of leukocyte elastase

[3] = target: T2, Neutrophil elastase (Homo sapiens); remark: listed apart in the source
[4] = target: T2, Neutrophil elastase (Homo sapiens); test: Second-order rate constant for time-dependent inactivation of Human Leukocyte Elastase was determined; G means no time-dependent inhibition was observed

| Structure (SMILES) | IC50 (Neutrophil elastase) | K obs / 1 [2] | other results |
| --- | --- | --- | --- |
| CO[C@H]1C(=O)N2C(C(=O)N(C)CC(=O)OC(C)(C)C)=C(COC(C)=O)CS(=O)(=O)[C@H]12 | 200 nM | – | – |
| CO[C@H]1C(=O)N2C(C(=O)OCc3ccc(C(C)(C)C)cc3)=C(COC(C)=O)CS(=O)(=O)[C@H]12 | 200 nM | – | K obs / 1 [1]: Inverse progress curve was observed |
| COc1ccc(COC(=O)C2=C(COC(C)=O)CS(=O)(=O)[C@@H]3[C@@H](OC)C(=O)N23)cc1 | 100 nM | – | K obs / 1 [1]: Inverse progress curve was observed |
| CO[C@H]1C(=O)N2C(C(=O)O)=C(COC(C)=O)CS(=O)(=O)[C@H]12 | > 50000 nM | – | – |
| CCCC[C@H](NC(=O)OC(C)(C)C)[C@@H](O)C(=O)O[C@H]1C[C@@]2(O)[C@@H](OC(=O)c3ccccc3)[C@@H]3[C@]4(OC(C)=O)CO[C@@H]4C[C@H](O)[C@@]3(C)[C@@H](O)[C@H](OC(C)=O)C(=C1C)C2(C)C | – | 900 M⁻¹ s⁻¹ | – |
| CO[C@H]1C(=O)N2C(C(=O)N3CCCC3)=C(COC(C)=O)CS(=O)(=O)[C@H]12 | – | 27000 M⁻¹ s⁻¹ | – |
| CO[C@H]1C(=O)N2C(C(=O)OC(C)(C)C)=C(COC(C)=O)CS(=O)(=O)[C@H]12 | – | – | K obs / 1 [3]: 16000 M⁻¹ s⁻¹ |
| CCOC(=O)COC(=O)C1=C(COC(C)=O)CS(=O)(=O)[C@@H]2[C@@H](OC)C(=O)N12 | 100 nM | – | – |
| CO[C@H]1C(=O)N2C(C(=O)NC(C)(C)C)=C(COC(C)=O)CS(=O)(=O)[C@H]12 | 800 nM | 2200 M⁻¹ s⁻¹ | – |
| CO[C@H]1C(=O)N2C(C(=O)OCc3ccc(C(=O)OC(C)(C)C)cc3)=C(COC(C)=O)CS(=O)(=O)[C@H]12 | 400 nM | – | K obs / 1 [4]: No time-dependent inhibition was observed |
| COC(=O)C1=C(COC(C)=O)CS(=O)(=O)[C@@H]2[C@@H](OC)C(=O)N12 | 200 nM | – | K obs / 1 [3]: 17000 M⁻¹ s⁻¹ |
| CO[C@H]1C(=O)N2C(C(=O)N3CCOCC3)=C(COC(C)=O)CS(=O)(=O)[C@H]12 | – | 35000 M⁻¹ s⁻¹ | – |
| CO[C@H]1C(=O)N2C(C(=O)NCC(=O)O)=C(COC(C)=O)CS(=O)(=O)[C@H]12 | > 50000 nM | – | – |
| COC(=O)CCN(C)C(=O)C1=C(COC(C)=O)CS(=O)(=O)[C@@H]2[C@@H](OC)C(=O)N12 | – | 6200 M⁻¹ s⁻¹ | – |
| CO[C@H]1C(=O)N2C(C(=O)OCc3ccccc3)=C(COC(C)=O)CS(=O)(=O)[C@H]12 | 70 nM | – | K obs / 1 [4]: No time-dependent inhibition was observed |
| CO[C@H]1C(=O)N2C(C(=O)N(C)CC(=O)O)=C(COC(C)=O)CS(=O)(=O)[C@H]12 | 5000 nM | 300 M⁻¹ s⁻¹ | – |
| COC(=O)CN(C)C(=O)C1=C(COC(C)=O)CS(=O)(=O)[C@@H]2[C@@H](OC)C(=O)N12 | – | 9500 M⁻¹ s⁻¹ | – |
| CO[C@H]1C(=O)N2C(C(=O)N(C)C)=C(COC(C)=O)CS(=O)(=O)[C@H]12 | 2000 nM | 3900 M⁻¹ s⁻¹ | – |
| CO[C@H]1C(=O)N2C(C(=O)NCCC(=O)O)=C(COC(C)=O)CS(=O)(=O)[C@H]12 | > 50000 nM | – | – |
| CO[C@H]1C(=O)N2C(C(=O)N(C)CCC(=O)O)=C(COC(C)=O)CS(=O)(=O)[C@H]12 | – | 500 M⁻¹ s⁻¹ | – |
| CO[C@H]1C(=O)N2C(C(=O)N(C)Cc3ccc(C(=O)O)cc3)=C(COC(C)=O)CS(=O)(=O)[C@H]12 | 400 nM | 8600 M⁻¹ s⁻¹ | – |
